Results published in patent US8778966B2, “Quinolinone derivatives as PARP and tank inhibitors” (Janssen Pharmaceutica, NV, priority 2007, dated 2014).

biological target: T1, TANK-2 enzyme (Homo sapiens, UniProt Q9H2K2); test: In vitro Scintillation Proximity Assay (SPA) for TANK-2 inhibitory activity; assay type: biochemical; conditions: read-out: in vitro SPA assay TANK-2 pIC50 (converted)
T1 construct: made in house
T1 sequence (Q9H2K2 1-1166): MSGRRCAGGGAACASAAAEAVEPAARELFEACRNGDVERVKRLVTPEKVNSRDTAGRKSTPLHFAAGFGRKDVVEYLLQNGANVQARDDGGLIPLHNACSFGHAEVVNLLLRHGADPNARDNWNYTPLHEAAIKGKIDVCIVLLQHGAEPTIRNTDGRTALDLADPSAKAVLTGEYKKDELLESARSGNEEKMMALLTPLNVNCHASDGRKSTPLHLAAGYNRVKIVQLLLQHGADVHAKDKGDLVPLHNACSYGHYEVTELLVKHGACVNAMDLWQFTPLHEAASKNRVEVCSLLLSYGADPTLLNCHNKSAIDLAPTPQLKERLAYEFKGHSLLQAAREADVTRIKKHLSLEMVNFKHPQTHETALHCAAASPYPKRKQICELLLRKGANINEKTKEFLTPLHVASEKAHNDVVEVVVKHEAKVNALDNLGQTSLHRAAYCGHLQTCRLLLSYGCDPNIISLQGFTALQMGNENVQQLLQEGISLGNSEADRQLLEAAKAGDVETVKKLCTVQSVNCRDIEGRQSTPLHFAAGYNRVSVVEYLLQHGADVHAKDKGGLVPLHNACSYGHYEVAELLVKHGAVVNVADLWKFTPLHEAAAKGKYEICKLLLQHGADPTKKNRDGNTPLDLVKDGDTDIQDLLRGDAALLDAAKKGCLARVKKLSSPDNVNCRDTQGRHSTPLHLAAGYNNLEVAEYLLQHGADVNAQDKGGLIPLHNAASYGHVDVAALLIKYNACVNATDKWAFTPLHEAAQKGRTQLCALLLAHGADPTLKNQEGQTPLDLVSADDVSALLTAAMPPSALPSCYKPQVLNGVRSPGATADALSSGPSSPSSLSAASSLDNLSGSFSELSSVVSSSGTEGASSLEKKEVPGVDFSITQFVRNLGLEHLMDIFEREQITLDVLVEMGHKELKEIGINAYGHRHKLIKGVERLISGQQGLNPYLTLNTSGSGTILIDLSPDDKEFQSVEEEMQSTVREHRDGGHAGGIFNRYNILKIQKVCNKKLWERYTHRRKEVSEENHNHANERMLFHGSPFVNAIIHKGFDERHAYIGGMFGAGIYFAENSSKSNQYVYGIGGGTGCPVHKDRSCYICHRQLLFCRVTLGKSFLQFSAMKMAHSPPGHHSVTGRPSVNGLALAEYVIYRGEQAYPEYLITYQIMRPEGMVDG
Method: Compounds of the present invention were tested in an in vitro assay based on SPA technology with Ni Flash plates (96 or 384 well). In principle, the assay relies upon SPA technology for the detection of auto-poly(ADP-ribosyl)ation of TANK-2 protein using [^3H]-nicotinamide adenine dinucleotide ([^3H]-NAD^+) as ADP-ribosyl donor.
A stock solution of 100 nM [3H]-NAD^+/NAD (0.1 mCi/ml, supplier: Perkin Elmer) and 0.25 μM NAD (Sigma) was made in assay buffer (60 mM Tris/HCl, pH 7.4; 0.9 mM DTT; 6 mM MgCl2). The TANK-2 enzyme was produced as described in EP1238063. 60 μl of assay buffer, together with 1 μl of compound in DMSO, 20 μl of [^3H]-NAD^+/NAD and 20 μl of TANK-2 enzyme (final concentration 8 μg/ml) was added per well into a 96-well Ni-coated flash plate (Perkin Elmer). After incubation of the mixture for 120 min. at room temperature, the reaction was terminated by adding 60 μl of stopsolution (42.6 mg NAD in 6 ml H2O). The plates were covered with a plate sealer and placed in a TopCountNXT™ (Packard) for scintillation counting. Values were expressed as counts per minute (cpm). For each experiment, controls (containing TANK-2 enzyme and DMSO without compound), a blank incubation (containing DMSO but no TANK-2 enzyme or compound) and samples (containing TANK-2 enzyme and compound dissolved in DMSO) were run in parallel. All compounds tested were dissolved and eventually further diluted in DMSO. In first instance, compounds were tested at a concentration of 10^−5M. […] In each test, the blank value was subtracted from both the control and the sample values. The control sample represented maximal TANK-2 enzyme activity. For each sample, the amount of cpm was expressed as a percentage of the mean cpm value of the controls. When appropriate, IC50-values (concentration of the drug, needed to reduce the TANK-2 enzyme activity to 50% of the control) were computed using linear interpolation between the experimental points just above and below the 50% level. Herein the effects of test compounds are expressed as pIC50 (the negative log value of the IC50-value). As reference compounds, 3-aminobenzamide and 4-amino-1,8-naphtalimide were included to validate the SPA assay. Herein the assay was described using 96-well plates. In the assay using 384-well plates the same final concentrations were used and volumes were adapted.

C#Cc1cccc(CC(C)(C#N)c2ccc3cc(CC)c(=O)[nH]c3c2)c1 (racemic) [Compound 168] and CCc1cc2ccc(C(C)(C#N)Cc3cccc(N)c3)cc2[nH]c1=O (centres unmarked) [Compound 15] are within 1.5-fold of each other in IC50: 79.4 nM for the first, 100 nM for the second.

Compared with CCc1cc2ccc(C(C)(C#N)CC3COc4ccccc4O3)cc2[nH]c1=O (single isomer, unassigned) [Compound 48], CCc1cc2ccc(C(C)(C#N)Cc3ccccc3C)cc2[nH]c1=O (centres unmarked) [Compound 105] is 10-fold lower in IC50: 200 nM for the first, 20 nM for the second.

Compared with CCc1cc2ccc([C@@](C)(C#N)CCOc3ccccc3)cc2[nH]c1=O (single isomer, unassigned) [Compound 150], CCc1cc2ccc(C(C)(C#N)CCOc3ccccc3)cc2[nH]c1=O (centres unmarked) [Compound 145] is 4-fold lower in IC50: 200 nM for the first, 50.1 nM for the second.

First: Cc1cc2ccc([C@@](C)(C#N)CCOc3ccccc3)cc2[nH]c1=O (single isomer, unassigned) [Compound 164]
Second: CCc1cc2ccc(C(C)(C#N)CCOc3ccccc3C)cc2[nH]c1=O (centres unmarked) [Compound 148]
The IC50 of the first is 6.3-fold higher: 631 nM for the first, 100 nM for the second.

Going from CCc1cc2ccc(C(C)(C#N)Cc3cccc(C(=O)O)c3)cc2[nH]c1=O (centres unmarked) [Compound 10] to CCc1cc2ccc(C(C)(C#N)Cc3cccc(C(=O)OC)c3)cc2[nH]c1=O (centres unmarked) [Compound 12], the IC50 rises from 50.1 nM to 100 nM (2-fold).

Going from CCc1cc2ccc(C(C)(C#N)Cc3cccc(-c4nc(C)no4)c3)cc2[nH]c1=O (centres unmarked) [Compound 11] to CCc1cc2ccc(C(C)(C#N)Cc3cccc(C)c3)cc2[nH]c1=O (centres unmarked) [Compound 107], the IC50 falls from 79.4 nM to 31.6 nM (2.5-fold).

Compared with CCc1cc2ccc(C(C)(C#N)Cc3cccc(C(=O)NC)c3)cc2[nH]c1=O (centres unmarked) [Compound 13], CCc1cc2ccc(C(C)(C#N)Cc3cccc(F)c3)cc2[nH]c1=O (centres unmarked) [Compound 112] is 2.5-fold lower in IC50: 63.1 nM for the first, 25.1 nM for the second.

Compared with CCc1cc2ccc(C(C)(C#N)Cc3cccc(NS(C)(=O)=O)c3)cc2[nH]c1=O (centres unmarked) [Compound 14], CCc1cc2ccc(C(C)(C#N)Cc3cccc(S(C)(=O)=O)c3)cc2[nH]c1=O (centres unmarked) [Compound 129] is 1.6-fold higher in IC50: 79.4 nM for the first, 126 nM for the second.

Compared with CCc1cc2ccc(C(C)(C#N)Cc3cccc(NC(=O)N4CCOCC4)c3)cc2[nH]c1=O (centres unmarked) [Compound 16], CCc1cc2ccc(C(C)(C#N)Cc3cccc(Cl)c3)cc2[nH]c1=O (centres unmarked) [Compound 140] is 1.6-fold higher in IC50: 79.4 nM for the first, 126 nM for the second.

CCc1cc2ccc(C(C)(C#N)Cc3ccccc3Br)cc2[nH]c1=O (centres unmarked) [Compound 104] and CCc1cc2ccc(C(C)(C#N)Cc3ccccc3F)cc2[nH]c1=O (centres unmarked) [Compound 106] are within 1.5-fold of each other in IC50: 63.1 nM for the first, 50.1 nM for the second.

Compared with CCc1cc2ccc(C(C)(C#N)Cc3ccc(C(F)(F)F)cc3)cc2[nH]c1=O (centres unmarked) [Compound 108], CCc1cc2ccc(C(C)(C#N)Cc3ccc(OC(F)(F)F)cc3)cc2[nH]c1=O (centres unmarked) [Compound 114] is 4-fold higher in IC50: 126 nM for the first, 501 nM for the second.

Compared with CCc1cc2ccc(C(C)(C#N)Cc3cccc(C(F)(F)F)c3)cc2[nH]c1=O (centres unmarked) [Compound 109], CCc1cc2ccc(C(C)(C#N)Cc3cccc(OC(F)(F)F)c3)cc2[nH]c1=O (centres unmarked) [Compound 110] is 1.6-fold higher in IC50: 79.4 nM for the first, 126 nM for the second.

CCc1cc2ccc(C(C)(C#N)Cc3ccc(C#N)cc3)cc2[nH]c1=O (centres unmarked) [Compound 111] and CCc1cc2ccc(C(C)(C#N)Cc3ccc(F)cc3)cc2[nH]c1=O (centres unmarked) [Compound 115] are the same in IC50: 31.6 nM for the first, 31.6 nM for the second.

Compared with CCc1cc2ccc(C(C)(C#N)Cc3cccc(OC)c3)cc2[nH]c1=O (centres unmarked) [Compound 113], CCc1cc2ccc(C(C)(C#N)Cc3ccc(OC)cc3)cc2[nH]c1=O (centres unmarked) [Compound 119] is 1.6-fold higher in IC50: 20 nM for the first, 31.6 nM for the second.

CCc1cc2ccc(C(C)(C#N)Cc3c(F)c(F)c(F)c(F)c3F)cc2[nH]c1=O (centres unmarked) [Compound 116] and CCc1cc2ccc(C(C)(C#N)Cc3c(F)cccc3F)cc2[nH]c1=O (centres unmarked) [Compound 138] are within 1.5-fold of each other in IC50: 79.4 nM for the first, 63.1 nM for the second.

CCc1cc2ccc(C(C)(C#N)Cc3ccc(C)cc3)cc2[nH]c1=O (centres unmarked) [Compound 117] and CCc1cc2ccc(C(C)(C#N)Cc3ccc(Br)cc3)cc2[nH]c1=O (centres unmarked) [Compound 118] are within 1.5-fold of each other in IC50: 25.1 nM for the first, 31.6 nM for the second.

Compared with CCc1cc2ccc(C(C)(C#N)Cc3cccc(F)c3F)cc2[nH]c1=O (centres unmarked) [Compound 120], CCc1cc2ccc(C(C)(C#N)Cc3cccc(Cl)c3F)cc2[nH]c1=O (centres unmarked) [Compound 130] is 1.6-fold higher in IC50: 50.1 nM for the first, 79.4 nM for the second.

Compared with CCc1cc2ccc(C(C)(C#N)Cc3cccc(Cl)c3Cl)cc2[nH]c1=O (centres unmarked) [Compound 121], CCc1cc2ccc(C(C)(C#N)Cc3c(Cl)cccc3Cl)cc2[nH]c1=O (centres unmarked) [Compound 135] is 1.6-fold lower in IC50: 79.4 nM for the first, 50.1 nM for the second.

CCc1cc2ccc(C(C)(C#N)Cc3ccc4ccccc4c3)cc2[nH]c1=O (centres unmarked) [Compound 122] and CCc1cc2ccc(C(C)(C#N)Cc3ccc4c(c3)nnn4C)cc2[nH]c1=O (centres unmarked) [Compound 123] are the same in IC50: 100 nM for the first, 100 nM for the second.

CCc1cc2ccc(C(C)(C#N)Cc3ccc4c(c3)OCCO4)cc2[nH]c1=O (centres unmarked) [Compound 124] and CCc1cc2ccc(C(C)(C#N)Cc3cc(C)cc(C)c3)cc2[nH]c1=O (centres unmarked) [Compound 125] are the same in IC50: 100 nM for the first, 100 nM for the second.

Compared with CCc1cc2ccc(C(C)(C#N)Cc3cc(F)cc(Cl)c3)cc2[nH]c1=O (centres unmarked) [Compound 126], CCc1cc2ccc(C(C)(C#N)Cc3cc(F)cc(F)c3)cc2[nH]c1=O (centres unmarked) [Compound 128] is 1.6-fold higher in IC50: 100 nM for the first, 158 nM for the second.

First: CCc1cc2ccc(C(C)(C#N)Cc3cc(F)cc(C(F)(F)F)c3)cc2[nH]c1=O (centres unmarked) [Compound 127]
Second: CCc1cc2ccc(C(C)(C#N)Cc3cc(C(F)(F)F)cc(C(F)(F)F)c3)cc2[nH]c1=O (centres unmarked) [Compound 131]
The IC50 of the first is 2.5-fold lower: 398 nM for the first, 1000 nM for the second.

Compared with CCc1cc2ccc(C(C)(C#N)Cc3cccc(C)c3F)cc2[nH]c1=O (centres unmarked) [Compound 132], CCc1cc2ccc(C(C)(C#N)Cc3cccc(C(F)(F)F)c3F)cc2[nH]c1=O (centres unmarked) [Compound 134] is 2-fold higher in IC50: 63.1 nM for the first, 126 nM for the second.

Going from CCc1cc2ccc(C(C)(C#N)Cc3cc(Br)cc(Br)c3)cc2[nH]c1=O (centres unmarked) [Compound 133] to CCc1cc2ccc(C(C)(C#N)Cc3cc(Cl)cc(Cl)c3)cc2[nH]c1=O (centres unmarked) [Compound 141], the IC50 falls from 200 nM to 126 nM (1.6-fold).

Going from CCc1cc2ccc(C(C)(C#N)Cc3c(Cl)cccc3Br)cc2[nH]c1=O (centres unmarked) [Compound 136] to CCc1cc2ccc(C(C)(C#N)Cc3ccc(F)cc3Br)cc2[nH]c1=O (centres unmarked) [Compound 139], the IC50 rises from 50.1 nM to 79.4 nM (1.6-fold).

First: CCc1cc2ccc(C(C)(C#N)Cc3ccc(F)cc3F)cc2[nH]c1=O (centres unmarked) [Compound 137]
Second: CCc1cc2ccc(C(C)(C#N)CCOc3ccc(F)cc3)cc2[nH]c1=O (centres unmarked) [Compound 144]
The IC50 of the first is 1.6-fold lower: 63.1 nM for the first, 100 nM for the second.

CCOc1ccccc1OCCC(C)(C#N)c1ccc2cc(CC)c(=O)[nH]c2c1 (centres unmarked) [Compound 142] and CCc1cc2ccc(C(C)(C#N)CCOc3cccc(C)c3)cc2[nH]c1=O (centres unmarked) [Compound 143] are the same in IC50: 158 nM for the first, 158 nM for the second.

First: CCc1cc2ccc(C(C)(C#N)CCOc3ccc(Cl)cc3)cc2[nH]c1=O (centres unmarked) [Compound 146]
Second: CCc1cc2ccc(C(C)(C#N)CCOc3ccc(OC)cc3)cc2[nH]c1=O (centres unmarked) [Compound 147]
The IC50 of the first is 2-fold higher: 158 nM for the first, 79.4 nM for the second.
